# Assay results: patent US10138275B2, “Crystalline powder of cyclic peptide compound, preparation method for same, and uses thereof” (SHANGHAI TECHWELL BIOPHARMACEUTICAL CO., LTD, priority 2014, dated 2018)
# Starred links: 1 amine or outer side, 2 acyl side, 3 side chain; linkers in the order of their positions; H or OH if unused. Positions of bridges follow the written chain, without caps; N, C: chain ends. Non-standard residues stand in square brackets, D forms with d. Residues, ends and D or L forms follow the SMILES beside them. *: point of attachment. hTyr(3S-OH,4S-OH,3'-OSO3H) = N[C@H](C(=O)O)[C@H](O)[C@@H](O)c1ccc(O)c(OS(=O)(=O)O)c1; Orn(4R-OH,5R-OH) = O=C([C@H](C[C@@H](O)[C@@H](O)N[*:3])N[*:1])[*:2]; Pro(3S-OH,4S-Me) = C[C@H]1CN[C@H](C(=O)O)[C@H]1O; X1 = CCCCCOc1ccc(-c2cc(-c3ccc(C(=O)*)cc3)no2)cc1; Gln(3R-OH) = NC(=O)C[C@@H](O)[C@H](N)C(=O)O; Hyp = O=C(O)[C@@H]1C[C@@H](O)CN1
# Assays:
# Type in all cases: physicochemical
# [1] = Particle size distribution (d10, d50) by Malvern particle size analyzer / laser diffraction; settings: after drying
# Experimental: […] Wherein, d10 and d50 are means known for indicating the particle size distribution. d50 refers to a value of particle size, and the size of 50 vol/% of particles is smaller than said value. D10 refers to a value of particle size, and the size of 10 vol/% of particles is smaller than said value. The preferred method for determining d10 and d50 is laser diffraction, d50 of the crystalline powder of the compound of formula I according to the present invention is determined as 10-100 um, and d10 is determined as 1-9 um. Preferably, d50 of the crystalline powder is 20-50 um, and d10 thereof is 1-5 um. Before solid-liquid separation, d50 of the crystalline powder of the compound of formula I is 10-100 um, and d10 thereof is 1-9 um. Preferably, d50 of the crystalline powder is 20-50 um, and d10 thereof is 3-6 um.
# [2] = Bulk density of powder by cylinder measurement; settings: after drying
# Experimental: “Bulk density of powder” is a measurement standard for the relative importance of the interaction between microparticles by comparing the bulk density and tapped density of the powder. Methods for measuring bulk density of powder are known in the art; for example, it can be determined by cylinder measurement, volumetric measurement, and container measurement. Bulk density of the crystalline powder of the compound of formula I according to the present invention is determined as less than 0.7 g/mL, preferably less than 0.6 g/mL, most preferably less than 0.5 g/mL, by cylinder measurement.
# [3] = Ratio of dry weight to wet weight (Dry/Wet) of filtered solids; settings: wet solids weighed after filtration, before drying
# From the text: As used herein, the term “Dry/Wet” and “ratio of dry weight to wet weight” can be used interchangeably, both of which refer to the ratio of the weight of a compound without solvent(s) to the weight of the compound with solvent(s). In the present invention, wet weight of crystals is obtained by filtering the crystallized solids until no noticeable droplet outflows and weighing the solids.
# [4] = Vacuum-drying at 25° C. with a water system until no organic solvent detected by GC; purity by HPLC; settings: for time Needed (for drying): 25° C., vacuum-drying with a water system until no organic solvent detected by GC; for Purity before drying / Purity after drying: HPLC; for Purity before drying: 5 g of solids; for Purity after drying: vacuum-dried at 25° C. with a water system until no organic solvent detected by GC
# From the text: High performance liquid chromatography (HPLC) is a common method for determining the purity of a compound, wherein a liquid is used as the mobile phase and a high-pressure transfusion system is used for pumping the mobile phase, such as single solvents with different polarities, a mixture of solvents at different proportions, or buffers, into a column packed with a stationary phase. Each component is separated in the column, and then enters into a detector for detection, thereby analyzing a sample. In the present invention, HPLC is used for determining the purity of the compound of formula I and studying the stability of a sample. Conditions of the HPLC method are listed as follows:
# Analysis Column: YMC-ODS 250×4.6 mm, 5 μm;
# Mobile phase: acetonitrile:phosphate buffer (pH 3.0)=45:70;
# Column temperature: 35° C.;
# Diluent: aqueous phosphate buffer;
# Detection wavelength: 210 nm;
# Gas chromatography (GC) used to separate and measure trace impurities in a compound is an accurate, qualitative and quantitative method of analysis. In the present invention, the content of organic solvents in the crystalline powder of the compound of formula I obtained in the present invention is measured by gas chromatography (GC).
# 5 g of solids were prepared according to the methods of Examples 2-10 and Comparative Examples 1-3 respectively, placed at 25° C., and vacuum-dried together with a water system until no organic solvent was detected through GC. The time for drying was compared, and the purity of the sample was analyzed.
Compound,"d10, particle size of the crystalline powder [1] [um]","d50, particle size of the crystalline powder [1] [um]",Bulk density [2] [g/mL],ratio of dry weight to wet weight (Dry/Wet) [3],time Needed (for drying) [4] [h],Purity before drying [4] [%],Purity after drying [4] [%]
"CCCCCOc1ccc(-c2cc(-c3ccc(C(=O)N[C@H]4C[C@@H](O)[C@@H](O)NC(=O)[C@@H]5[C@@H](O)[C@@H](C)CN5C(=O)[C@H]([C@H](O)CC(N)=O)NC(=O)[C@H]([C@H](O)[C@@H](O)c5ccc(O)c(OS(=O)(=O)[O-])c5)NC(=O)[C@@H]5C[C@@H](O)CN5C(=O)[C@H]([C@@H](C)O)NC4=O)cc3)no2)cc1.[Na+] [Example 2] (X1-[Orn(4R-OH,5R-OH)]T[Hyp][hTyr(3S-OH,4S-OH,3'-OSO3H)][Gln(3R-OH)][Pro(3S-OH,4S-Me)]; lactam 1-C)",3,31.9,0.45,0.45,7,99.68,99.68
"CCCCCOc1ccc(-c2cc(-c3ccc(C(=O)N[C@H]4C[C@@H](O)[C@@H](O)NC(=O)[C@@H]5[C@@H](O)[C@@H](C)CN5C(=O)[C@H]([C@H](O)CC(N)=O)NC(=O)[C@H]([C@H](O)[C@@H](O)c5ccc(O)c(OS(=O)(=O)[O-])c5)NC(=O)[C@@H]5C[C@@H](O)CN5C(=O)[C@H]([C@@H](C)O)NC4=O)cc3)no2)cc1.[Na+] [Example 3] (X1-[Orn(4R-OH,5R-OH)]T[Hyp][hTyr(3S-OH,4S-OH,3'-OSO3H)][Gln(3R-OH)][Pro(3S-OH,4S-Me)]; lactam 1-C)",3.7,43.1,0.43,0.52,6.5,99.63,99.61
"CCCCCOc1ccc(-c2cc(-c3ccc(C(=O)N[C@H]4C[C@@H](O)[C@@H](O)NC(=O)[C@@H]5[C@@H](O)[C@@H](C)CN5C(=O)[C@H]([C@H](O)CC(N)=O)NC(=O)[C@H]([C@H](O)[C@@H](O)c5ccc(O)c(OS(=O)(=O)[O-])c5)NC(=O)[C@@H]5C[C@@H](O)CN5C(=O)[C@H]([C@@H](C)O)NC4=O)cc3)no2)cc1.[Na+] [Example 4] (X1-[Orn(4R-OH,5R-OH)]T[Hyp][hTyr(3S-OH,4S-OH,3'-OSO3H)][Gln(3R-OH)][Pro(3S-OH,4S-Me)]; lactam 1-C)",5.1,50,0.55,0.61,9,99.64,99.64
"CCCCCOc1ccc(-c2cc(-c3ccc(C(=O)N[C@H]4C[C@@H](O)[C@@H](O)NC(=O)[C@@H]5[C@@H](O)[C@@H](C)CN5C(=O)[C@H]([C@H](O)CC(N)=O)NC(=O)[C@H]([C@H](O)[C@@H](O)c5ccc(O)c(OS(=O)(=O)[O-])c5)NC(=O)[C@@H]5C[C@@H](O)CN5C(=O)[C@H]([C@@H](C)O)NC4=O)cc3)no2)cc1.[Na+] [Example 5] (X1-[Orn(4R-OH,5R-OH)]T[Hyp][hTyr(3S-OH,4S-OH,3'-OSO3H)][Gln(3R-OH)][Pro(3S-OH,4S-Me)]; lactam 1-C)",9,97.7,0.6,0.66,10,99.52,99.47
"CCCCCOc1ccc(-c2cc(-c3ccc(C(=O)N[C@H]4C[C@@H](O)[C@@H](O)NC(=O)[C@@H]5[C@@H](O)[C@@H](C)CN5C(=O)[C@H]([C@H](O)CC(N)=O)NC(=O)[C@H]([C@H](O)[C@@H](O)c5ccc(O)c(OS(=O)(=O)[O-])c5)NC(=O)[C@@H]5C[C@@H](O)CN5C(=O)[C@H]([C@@H](C)O)NC4=O)cc3)no2)cc1.[Na+] [Example 6] (X1-[Orn(4R-OH,5R-OH)]T[Hyp][hTyr(3S-OH,4S-OH,3'-OSO3H)][Gln(3R-OH)][Pro(3S-OH,4S-Me)]; lactam 1-C)",–,48.7,0.49,0.6,8.5,99.61,99.6
"CCCCCOc1ccc(-c2cc(-c3ccc(C(=O)N[C@H]4C[C@@H](O)[C@@H](O)NC(=O)[C@@H]5[C@@H](O)[C@@H](C)CN5C(=O)[C@H]([C@H](O)CC(N)=O)NC(=O)[C@H]([C@H](O)[C@@H](O)c5ccc(O)c(OS(=O)(=O)[O-])c5)NC(=O)[C@@H]5C[C@@H](O)CN5C(=O)[C@H]([C@@H](C)O)NC4=O)cc3)no2)cc1.[Na+] [Example 7] (X1-[Orn(4R-OH,5R-OH)]T[Hyp][hTyr(3S-OH,4S-OH,3'-OSO3H)][Gln(3R-OH)][Pro(3S-OH,4S-Me)]; lactam 1-C)",1,10,0.6,0.69,9.5,99.65,99.57
"CCCCCOc1ccc(-c2cc(-c3ccc(C(=O)N[C@H]4C[C@@H](O)[C@@H](O)NC(=O)[C@@H]5[C@@H](O)[C@@H](C)CN5C(=O)[C@H]([C@H](O)CC(N)=O)NC(=O)[C@H]([C@H](O)[C@@H](O)c5ccc(O)c(OS(=O)(=O)[O-])c5)NC(=O)[C@@H]5C[C@@H](O)CN5C(=O)[C@H]([C@@H](C)O)NC4=O)cc3)no2)cc1.[Na+] [Example 8] (X1-[Orn(4R-OH,5R-OH)]T[Hyp][hTyr(3S-OH,4S-OH,3'-OSO3H)][Gln(3R-OH)][Pro(3S-OH,4S-Me)]; lactam 1-C)",2.6,18.7,0.38,0.45,6,99.52,99.46
"CCCCCOc1ccc(-c2cc(-c3ccc(C(=O)N[C@H]4C[C@@H](O)[C@@H](O)NC(=O)[C@@H]5[C@@H](O)[C@@H](C)CN5C(=O)[C@H]([C@H](O)CC(N)=O)NC(=O)[C@H]([C@H](O)[C@@H](O)c5ccc(O)c(OS(=O)(=O)[O-])c5)NC(=O)[C@@H]5C[C@@H](O)CN5C(=O)[C@H]([C@@H](C)O)NC4=O)cc3)no2)cc1.[Na+] [Example 9] (X1-[Orn(4R-OH,5R-OH)]T[Hyp][hTyr(3S-OH,4S-OH,3'-OSO3H)][Gln(3R-OH)][Pro(3S-OH,4S-Me)]; lactam 1-C)",1.3,20,0.54,0.62,8.5,99.42,99.38
